# Data published in patent US7932262B2 (Novartis AG, priority 2006, dated 2011).
# Where two headings read alike, the source gives them in different places.
# Key:
# [1] = target: T1, PDK1 kinase (Homo sapiens, UniProt O15530); assay: PDK1 Kinase Alpha Screen Assay; type: biochemical; conditions: PDK1 Kinase Alpha Screen Assay; read-out: PDK1 IC50
# T1 sequence (O15530 1-556): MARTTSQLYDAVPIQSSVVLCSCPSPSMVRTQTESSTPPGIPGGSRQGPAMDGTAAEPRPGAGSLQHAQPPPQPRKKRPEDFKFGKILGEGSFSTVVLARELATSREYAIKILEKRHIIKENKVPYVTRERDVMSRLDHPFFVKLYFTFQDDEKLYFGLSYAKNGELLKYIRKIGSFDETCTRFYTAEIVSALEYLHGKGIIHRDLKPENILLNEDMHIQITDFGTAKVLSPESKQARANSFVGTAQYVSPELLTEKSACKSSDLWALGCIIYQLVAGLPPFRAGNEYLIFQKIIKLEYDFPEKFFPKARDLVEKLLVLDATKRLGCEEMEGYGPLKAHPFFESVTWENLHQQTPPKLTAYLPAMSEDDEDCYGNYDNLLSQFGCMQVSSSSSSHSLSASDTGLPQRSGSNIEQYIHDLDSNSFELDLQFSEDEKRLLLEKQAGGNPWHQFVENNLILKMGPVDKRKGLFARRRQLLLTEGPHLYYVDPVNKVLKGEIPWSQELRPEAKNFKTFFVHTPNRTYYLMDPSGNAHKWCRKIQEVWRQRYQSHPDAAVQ
# Procedure, shortened: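 Kinase inhibition measured as loss of AlphaScreen signal from antibody recognition of phosphorylated biotin-PDK1-4 peptide. Reactions contain 10 uM ATP and 50 nM peptide, run 3-18 hours before EDTA quench and overnight bead development at room temperature.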
# [2] = tested on: PC-3 cells; assay: Cell Proliferation Assay (Cell Titer Glo), PC-3 cell line; type: cell-based; conditions: PC3, read-out: CPEC50 PC3
# Procedure, shortened: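 Cell Titer Glo luminescence, read after fresh medium replaced the dosing medium, gave viability of PC-3 cells plated at 1000 cells/well. Compounds, 1:3 serially diluted in DMSO at 500× and then in medium, were added after 3-5 h adhesion and incubated 3 days at 37° C.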
# [3] = Homo sapiens, PC-3, Cell Proliferation Assay
SMILES,IC50 [1],"EC50 [2, 3]",EC50 ([2]; Cell Proliferation Assay)
"Fc1ccc(Nc2ncc3cccc(OC4CCNCC4)c3n2)cc1C1=CCNCC1 [Compound 487, N-(4-fluoro-3-(1,2,3,6-tetrahydropyridin-4-yl)phenyl)-8-(piperidin-4-yloxy)quinazolin-2-amine]",< 5 µM,< 5 µM,
"CC(C)N1CCC(Oc2cccc3cnc(N)nc23)CC1 [Compound 523, 8-(1-isopropylpiperidin-4-yloxy)quinazolin-2-amine]",5 to 10 µM,5 to 10 µM,
"Nc1ncc2cccc(O)c2n1 [Compound 524, 2-aminoquinazolin-8-ol]",10 to 25 µM,< 5 µM,
"CC(C)N1CCC(Oc2cccc3cnc(Nc4cccc(C(F)(F)F)c4)nc23)CC1 [Compound 529, 8-(1-isopropylpiperidin-4-yloxy)-N-(3-(trifluoromethyl)phenyl)quinazolin-2-amine]",< 5 µM,< 5 µM,
"CC(C)N1CCC(Oc2cccc3cnc(Nc4cccc(C#N)c4)nc23)CC1 [Compound 530, 3-(8-(1-isopropylpiperidin-4-yloxy)quinazolin-2-ylamino)benzonitrile]",< 5 µM,< 5 µM,
"COc1cccc(Nc2ncc3cccc(OC4CCN(C(C)C)CC4)c3n2)c1 [Compound 531, 8-(1-isopropylpiperidin-4-yloxy)-N-(3-methoxyphenyl)quinazolin-2-amine]",< 5 µM,5 to 10 µM,
"CC(C)N1CCC(Oc2cccc3cnc(Nc4ccccc4F)nc23)CC1 [Compound 532, N-(2-fluorophenyl)-8-(1-isopropylpiperidin-4-yloxy)quinazolin-2-amine]",5 to 10 µM,5 to 10 µM,
"CC(C)N1CCC(Oc2cccc3cnc(Nc4cc(F)cc(F)c4)nc23)CC1 [Compound 533, N-(3,5-difluorophenyl)-8-(1-isopropylpiperidin-4-yloxy)quinazolin-2-amine]",< 5 µM,< 5 µM,
"CC(C)N1CCC(Oc2cccc3cnc(Nc4ccccc4)nc23)CC1 [Compound 534, 8-(1-isopropylpiperidin-4-yloxy)-N-phenylquinazolin-2-amine]",< 5 µM,< 5 µM,
"COc1ccc(Nc2ncc3cccc(OC4CCN(C(C)C)CC4)c3n2)cc1 [Compound 535, 8-(1-isopropylpiperidin-4-yloxy)-N-(4-methoxyphenyl)quinazolin-2-amine]",< 5 µM,5 to 10 µM,
"CC(C)N1CCC(Oc2cccc3cnc(Nc4ccc(C#N)cc4)nc23)CC1 [Compound 536, 4-(8-(1-isopropylpiperidin-4-yloxy)quinazolin-2-ylamino)benzonitrile]",< 5 µM,< 5 µM,
"CC(C)N1CCC(Oc2cccc3cnc(Nc4ccc(C(=O)N5CCOCC5)cc4)nc23)CC1 [Compound 537, (4-(8-(1-isopropylpiperidin-4-yloxy)quinazolin-2-ylamino)phenyl)(morpholino)methanone]",< 5 µM,5 to 10 µM,

# Second part, the compound after the results:
IC50 [1],"EC50 [2, 3]",EC50 ([2]; Cell Proliferation Assay),SMILES
< 5 µM,< 5 µM,,"O=C(O)c1ccc(Nc2ncc3cccc(OC4CCNCC4)c3n2)cc1 [Compound 488, 4-(8-(piperidin-4-yloxy)quinazolin-2-ylamino)benzoic acid]"
< 5 µM,< 5 µM,,"N#Cc1ccc(Nc2ncc3cccc(OC4CCNCC4)c3n2)cc1 [Compound 489, 4-(8-(piperidin-4-yloxy)quinazolin-2-ylamino)benzonitrile]"
< 5 µM,< 5 µM,,"O=C(NC1CC1)c1ccc(Nc2ncc3cccc(OC4CCNCC4)c3n2)cc1 [Compound 490, N-cyclopropyl-4-(8-(piperidin-4-yloxy)quinazolin-2-ylamino)benzamide]"
< 5 µM,< 5 µM,,"CC(C)NC(=O)c1ccc(Nc2ncc3cccc(OC4CCNCC4)c3n2)cc1 [Compound 491, N-isopropyl-4-(8-(piperidin-4-yloxy)quinazolin-2-ylamino)benzamide]"
< 5 µM,< 5 µM,,COCCNC(=O)c1ccc(Nc2ncc3cccc(OC4CCNCC4)c3n2)cc1 [Compound 492]
< 5 µM,< 5 µM,,"CS(=O)(=O)CCNC(=O)c1ccc(Nc2ncc3cccc(OC4CCNCC4)c3n2)cc1F [Compound 493, 2-fluoro-N-(2-(methylsulfonyl)ethyl)-4-(8-(piperidin-4-yloxy)quinazolin-2-ylamino)benzamide]"
< 5 µM,5 to 10 µM,,"O=C1CN(C(=O)c2ccc(Nc3ncc4cccc(OC5CCNCC5)c4n3)cc2F)CCN1 [Compound 494, 4-(2-fluoro-4-(8-(piperidin-4-yloxy)quinazolin-2-ylamino)benzoyl)piperazin-2-one]"
< 5 µM,< 5 µM,,"O=C(NC1CCCC1)c1ccc(Nc2ncc3cccc(OC4CCNCC4)c3n2)cc1F [Compound 495, N-cyclopentyl-2-fluoro-4-(8-(piperidin-4-yloxy)quinazolin-2-ylamino)benzamide]"
< 5 µM,5 to 10 µM,,"CC(=O)NCCNC(=O)c1ccc(Nc2ncc3cccc(OC4CCNCC4)c3n2)cc1F [Compound 496, N-(2-acetamidoethyl)-2-fluoro-4-(8-(piperidin-4-yloxy)quinazolin-2-ylamino)benzamide]"
< 5 µM,< 5 µM,,"O=C(NCCN1CCCC1)c1ccc(Nc2ncc3cccc(OC4CCNCC4)c3n2)cc1F [Compound 497, 2-fluoro-4-(8-(piperidin-4-yloxy)quinazolin-2-ylamino)-N-(2-(pyrrolidin-1-yl)ethyl)benzamide]"
< 5 µM,5 to 10 µM,,"O=C(c1ccc(Nc2ncc3c(C(F)(F)F)ccc(OC4CCNCC4)c3n2)cc1)N1CCOCC1 [Compound 501, morpholino(4-(8-(piperidin-4-yloxy)-5-(trifluoromethyl)quinazolin-2-ylamino)phenyl)methanone]"
< 5 µM,,< 5 µM,"FC(F)(F)c1ccc(OC2CCNCC2)c2nc(Nc3ccc(N4CCOCC4)cc3)ncc12 [Compound 502, N-(4-morpholinophenyl)-8-(piperidin-4-yloxy)-5-(trifluoromethyl)quinazolin-2-amine]"
< 5 µM,5 to 10 µM,,"COc1c(NC2CCN(C)CC2)cc(Cl)c2cnc(Nc3ccc(C(=O)N4CCOCC4)cc3)nc12 [Compound 503, (4-(5-chloro-8-methoxy-7-(1-methylpiperidin-4-ylamino)quinazolin-2-ylamino)phenyl)(morpholino)methanone]"
< 5 µM,< 5 µM,,"CC(C)N1CCC(Oc2cccc3cnc(Nc4cccc(NC(=O)N5CCCC5)c4)nc23)CC1 [Compound 525, N-(3-(8-(1-isopropylpiperidin-4-yloxy)quinazolin-2-ylamino)phenyl)pyrrolidine-1-carboxamide]"
< 5 µM,5 to 10 µM,,"COc1cc(Nc2ncc3cccc(OC4CCN(C(C)C)CC4)c3n2)cc(OC)c1 [Compound 526, N-(3,5-dimethoxyphenyl)-8-(1-isopropylpiperidin-4-yloxy)quinazolin-2-amine]"
< 5 µM,< 5 µM,,"CC(C)N1CCC(Oc2cccc3cnc(Nc4cccc(F)c4)nc23)CC1 [Compound 527, N-(3-fluorophenyl)-8-(1-isopropylpiperidin-4-yloxy)quinazolin-2-amine]"
< 5 µM,< 5 µM,,"CC(C)N1CCC(Oc2cccc3cnc(Nc4cccc(Cl)c4)nc23)CC1 [Compound 528, N-(3-chlorophenyl)-8-(1-isopropylpiperidin-4-yloxy)quinazolin-2-amine]"
